Source: PMC4501119, “Cholestenoic acid, an endogenous cholesterol metabolite, is a potent γ-secretase modulator” (Molecular Neurodegeneration, 2015)
Read-outs that look alike come from different tables or passages of the source.

Assays:
[1] = test system: Aβ42 in CHO-2B7 cells (CHO cells stably overexpressing APP695); assay: Cell-based Aβ sandwich ELISA of conditioned media from CHO-2B7 cells treated 16 h; design: species or system Chinese hamster; conditions: for GSM activity: dose dependent studies; for GSM activity / fold less potent than CA 2a (Aβ42 EC50): CHO-2B7 cells
Experimental: Chinese hamster ovary (CHO) cells stably overexpressing APP695 (CHO-2B7 cells) were grown in Ham’s F-12 medium (Life Technologies) supplemented with 10 % fetal bovine serum and 100 units/ml of penicillin and 100 μg/ml streptomycin. Cells were grown at 37 °C in a humidified atmosphere containing 5 % CO2 in tissue culture plates (Costar). The cells were harvested at confluence and then utilized for biochemical analyses. Compounds were dissolved in dimethyl sulfoxide (DMSO) and screened in CHO-2B7 cells. The cells were incubated for 16 h in the presence of the compound diluted into OptiMEM-reduced serum medium (Life Technologies, Carlsbad, CA, USA) containing 1 % fetal bovine serum.
Monoclonal antibodies to Aβ were generated by the Mayo Clinic Immunology Core facilities (Jacksonville, FL, USA). Ab5 recognizes an epitope in the amino terminus of Aβ (Aβ1-16), recognizes both monomeric and aggregated Aβ, and is human specific. […] Ab 2.1.3 was raised against Aβ35-42 and is specific for Aβx-42. […] Total Aβ level was determined by capture with Ab5 and detected with horseradish peroxidase (HRP)-conjugated 4G8 (a monoclonal antibody against Aβ17-24; Covance, Waltham, MA, USA) with the other Aβ peptides detected with HRP-conjugated Ab5. For the cell-free assay and measuring mouse endogenous Aβ, HRP-conjugated 4G8 was used as the secondary detection antibody. Aβ standards (Bachem, King of Prussia, PA, USA) were prepared by dissolving in hexafluoroisopropanol (HFIP) at 1 mg/ml with sonication, dried under nitrogen, resuspended at 2 mg/ml HFIP, sonicated again and dried under nitrogen. The resulting Aβ was resuspended in 0.01 % ammonium hydroxide, portioned into aliquots in EC buffer, and frozen at −80 °C.

Aβ42 = conditions: cited from earlier work; for GSM activity: endogenous bile acids
[2] = test system: brain mAβ42, mAβ38 and total mAβ; assay: Brain Aβ levels after intraperitoneal injection in wild type mice; assay type: in vivo, mouse (C57BL/6 or CF-1); conditions: 30 mg/kg IP, brains harvested after 30 min, 1, 2 and 3 h
Experimental: 25(R)-CA powder was initially dissolved in DMSO (<4.5 % in the final mixture) and then combined with polyethylene glycol (15)-hydroxystearate (Solutol), ethanol, and water at a ratio of (15:10:75). One molar equivalent of sodium hydroxide was added to the mixture. We performed CA intraperitoneal (IP) injections to wild-type mice (C57BL/6 or CF-1). The mice were injected with 25(R)-CA on the right side of the abdomen. The injections have been performed with various time points (30 min, 1 h, 2 h, and 3 h) and with multiple doses (30 mg per kg (mg/kg), 60 mg/kg, 75 mg/kg and 100 mg/kg). The number of each cohort is 6–8. We used 30 mg/kg of CA for the time-course experiments, and for the dose–response experiments the end-point was set at 30 min. The brains and serum are harvested and frozen for brain Aβ extraction.
The mouse brains were harvested at the age of 3 months. The brains were weighed and recorded. The Diethylamine/Sodium Chloride (DEA/NaCl) extraction buffer (0.4 % DEA) was added to each sample and homogenized using a sonicator. The samples were transferred to a poly-carbonate centrifuge tube and spun down at 50,000xg for 30 min at 4 °C. The supernatant was loaded on the vacuum manifold with the appropriate number of HLB Oasis columns. The samples were loaded on the conditioned column, filtered, and eluted using prepared elution buffer (90 % Methanol, 2 % NH4OH). The eluates are concentrated using the Thermo-Savant SpeedVac concentrator for a minimum of 2 h at 55 °C with radiant heat. The concentrated samples are reconstituted in a blocking buffer (0.67 % Bovine serum albumin (BSA)) at the appropriate volume.
Monoclonal antibodies to Aβ were generated by the Mayo Clinic Immunology Core facilities (Jacksonville, FL, USA). […] Total Aβ level was determined by capture with Ab5 and detected with horseradish peroxidase (HRP)-conjugated 4G8 (a monoclonal antibody against Aβ17-24; Covance, Waltham, MA, USA) with the other Aβ peptides detected with HRP-conjugated Ab5. […] Following these steps, the Aβ is monomeric, as determined by size-exclusion chromatography.

[3] = test system: endogenous mouse Aβ (mAβ) in primary neuron-glia cultures; assay: Primary mixed neuron-glia culture, endogenous mouse Aβ ELISA; assay type: cell-based
Experimental: Primary mixed neuron-glia cultures were prepared from postnatal day 0 (P0) C3HBL/6 mouse brains (Harlan Labs). Cerebral cortices were dissected from P0 mouse brains and were dissociated in 2 mg/ml papain (Worthington) and 50 μg/mL DNAse I (Sigma) at 37 °C for 20 min. They were then washed three times in sterile Hank’s balanced salt solution (HBSS) to inactivate the papain and switched to 5 % fetal bovine serume (HyClone) in Neurobasal-A growth media (Gibco), which includes 0.5 mM L-glutamine (Gibco), 0.5 mM GlutaMax (Life Technologies), 0.01 % antibiotic-antimycotic (Gibco), and 0.02 % SM1 supplement (Stemcell). The tissue mixture was then triturated three times using a 5 mL pipette followed by a Pasteur pipette, and strained through a 70 μm cell strainer. The cell mixture was then centrifuged at 200xg for 3 min, and re-suspended in fresh Neurobasal-A media. They were then plated onto poly-D-lysine coated 96well plates at 100,000 cells/well. Cells were maintained in the Neurobasal-A growth media mentioned above without fetal bovine serum (FBS) at 37 °C in a humidified 5 % CO2 chamber.
(§1) Monoclonal antibodies to Aβ were generated by the Mayo Clinic Immunology Core facilities (Jacksonville, FL, USA). Ab5 recognizes an epitope in the amino terminus of Aβ (Aβ1-16), recognizes both monomeric and aggregated Aβ, and is human specific. […] Ab 2.1.3 was raised against Aβ35-42 and is specific for Aβx-42. […] For cell-based screens, Aβ was captured from conditioned medium with either Ab5, Ab38, Ab13.1.1, or Ab2.1.3 (coated at 10-50 μg/ml in EC buffer: 5 mM NaH2PO4-H2O, 20 mM Na2HPO4, 400 mM NaCl, 2.5 mM EDTA-full name, 151.5 μM BSA, 813 μM CHAPS, and 7.7 mM NaN3) on Immulon 4HBX Flat-Bottom Microfilter 96-well plates (Thermo Scientific, Waltham, MA, USA). Total Aβ level was determined by capture with Ab5 and detected with horseradish peroxidase (HRP)-conjugated 4G8 (a monoclonal antibody against Aβ17-24; Covance, Waltham, MA, USA) with the other Aβ peptides detected with HRP-conjugated Ab5. For the cell-free assay and measuring mouse endogenous Aβ, HRP-conjugated 4G8 was used as the secondary detection antibody. Aβ standards (Bachem, King of Prussia, PA, USA) were prepared by dissolving in hexafluoroisopropanol (HFIP) at 1 mg/ml with sonication, dried under nitrogen, resuspended at 2 mg/ml HFIP, sonicated again and dried under nitrogen. The resulting Aβ was resuspended in 0.01 % ammonium hydroxide, portioned into aliquots in EC buffer, and frozen at −80 °C. Following these steps, the Aβ is monomeric, as determined by size-exclusion chromatography.

γ-secretase = biological target: T1, γ-secretase (Homo sapiens, UniProt P49768); assay: In vitro γ-secretase (broken cell) assay, membranes of H4 neuroglioma cells overexpressing APP695wt, Aβ ELISA; assay type: biochemical; conditions: vs DMSO control, 2 h incubation
T1 construct: The membrane derived from the H4 neuroglioma cells overexpressing APP695wt were prepared by carbonate extraction; endogenous in cells; host or cells: H4 neuroglioma cells overexpressing APP695wt (membranes, carbonate extraction)
Experimental: Broken cell assays were performed with slight modifications from the previous studies. The membrane derived from the H4 neuroglioma cells overexpressing APP695wt were prepared by carbonate extraction and incubated at 37 °C for 2 h with CA at various concentrations. Aβ levels were quantified by sandwich ELISAs. For Aβ and AICD spectra, the recombinant C100Flag proteins were overexpressed and purified from Escherichia coli BL21 using a HiTrap Q-column (GE Life Science, Little Chalfont, U.K.). The membrane containing γ-secretase was isolated from the CHO S-1 cell line using sodium carbonate (100 mM, pH 11.0). For the in vitro γ-secretase assay, C100Flag recombinant protein at 25 μM was incubated with the membrane (100 μg/mL) in the presence of CA (20 μM) and DMSO in 150 mM sodium citrate buffer (pH 6.8) containing complete protease inhibitor (Roche, Indianapolis, IN) for 2 h at 37 °C.
as §1

[4] = Cricetulus griseus, CHO-2B7, 16 h, lowering Aβ42, CHO-2B7 cells, 16 h, ELISA
[5] = lowering Aβ42, CHO-2B7 cells, 16 h, ELISA
[6] = Cricetulus griseus, lowering Aβ42, CHO-2B7 cells, 16 h, ELISA
[7] = Cricetulus griseus, lowering Aβ42, CHO-2B7 cells, approximate value

With `CC(CCCC(C)C1CCC2C3C(O)CC4=CC(=O)CCC4(C)C3CCC12C)C(=O)O` (stereo not drawn) [7α-OH-4-CA, 7α-hydroxy-4-oxo-cholestenoic acid] the EC50 [1, 4] was 4150 nM and the GSM activity [1] was “demonstrated GSM activity”.
For `CC(CCCC(C)C1CCC2C3C(O)C=C4CC(O)CCC4(C)C3CCC12C)C(=O)O` (stereo not drawn) [7α-OH-CA, 7α-hydroxy-cholestenoic acid], the EC50 [1, 4] was 970 nM and the GSM activity [1] was “demonstrated GSM activity”.
With `C[C@@H](CO)CCC[C@@H](C)[C@H]1CC[C@H]2[C@@H]3CC=C4C[C@@H](O)CC[C@]4(C)[C@H]3CC[C@]12C` [27-OHC, 27-hydroxycholesterol] the GSM activity [1] was “inactive” and the “Aβ42 EC50” value [1, 5] was “could not be determined”.
For `C[C@H](CCC(=O)O)[C@H]1CC[C@H]2[C@@H]3CC[C@@H]4CCCC[C@]4(C)[C@H]3CC[C@]12C` [Cmpd 1, 5β-Cholanic acid], the EC50 (Aβ42; decreasing Aβ42) is listed as roughly 5700 nM and the EC50 (Aβ42; decreasing Aβ42, listed as 5β-cholanic acid) is listed as 5700 nM.
In the case of `C[C@H](CCC[C@H](C)C(=O)O)[C@H]1CC[C@H]2[C@@H]3CC=C4C[C@@H](O)CC[C@]4(C)[C@H]3CC[C@]12C` [Cmpd 2b, 25-(S)-CA], the “fold less potent than CA 2a (Aβ42 EC50)” value [1] is reported as “about 2 fold” and the EC50 [1, 5] is reported as 501 nM.
For `O=C(O)[C@H](CC1CCC1)c1cc(Cl)c(OCC(F)(F)F)c(-c2ccc(C(F)(F)F)cc2)c1` [Cmpd 3, (R)-2-(5-chloro-6-(2,2,2-trifluoroethoxy)-4’-(trifluoromethyl)biphenyl-3-yl)-3-cyclobutylpropanoic acid], the EC50 (Aβ42; GSM activity, ref the previous literature) is listed as 67 nM.
With `CC(C)CC(c1ccc(Cl)cc1)N1CC[C@@H](CC(=O)O)C[C@H]1c1ccc(C(F)(F)F)cc1` (stereo partly drawn) [Cmpd 4, reference compound] the EC50 [1, 4] was 92 nM, the “brain Aβ levels” value [2] was “expected Aβ modulation” and the mAβ38 level ([3]; 1 μM) was “increased”. For the same compound, the mAβ42 level ([3]; 1 μM) was “decreased”.
`C[C@H](CCCC(=O)O)[C@H]1CC[C@H]2[C@@H]3CC=C4C[C@@H](O[Si](C)(C)C(C)(C)C)CC[C@]4(C)[C@H]3CC[C@]12C` [Cmpd 5] showed an EC50 [1, 6] of 1780 nM and an EC50 [1, 7] of roughly 2000 nM.
With `C[C@H](CCCC(=O)O)[C@H]1CC[C@H]2[C@@H]3CC=C4C[C@@H](O)CC[C@]4(C)[C@H]3CC[C@]12C` [Cmpd 6] the EC50 [1, 6] was 1960 nM and the EC50 [1, 7] was roughly 2000 nM.
With `CC(CCCC(C)C1CCC2C3CC=C4CC(F)CCC4(C)C3CCC12C)C(=O)O` (stereo not drawn) [Cmpd 12] the EC50 [1, 5] was 8910 nM.
In the case of `CC(CCC[C@@H](C)[C@H]1CC[C@H]2[C@@H]3CC=C4CCCC[C@]4(C)[C@H]3CC[C@]12C)C(=O)O` (stereo partly drawn) [Cmpd 13, 3-deoxy-CA], the “fold less potent than CA 2a (Aβ42 EC50)” value [1] is reported as “approximately 3 fold” and the EC50 [1, 5] is reported as 670 nM.
With `C[C@H](NC(=O)Cc1cc(F)cc(F)c1)C(=O)N[C@H]1N=C(c2ccccc2)c2ccccc2N(C)C1=O` [Cmpd E, reference compound] the “overall Aβ production” value [3] was “decreased”, the “decrease of total Aβ production” value (γ-secretase) was 77% and the “decrease of Aβ42 production” value (γ-secretase; CA at 150 μM) was 91%.
For `C[C@H](CCC(=O)O)[C@H]1CC[C@H]2[C@@H]3CC[C@@H]4C[C@H](O)CC[C@]4(C)[C@H]3CC[C@]12C` [lithocholic acid], the GSM activity (Aβ42) is listed as “GSMs”.
For `C[C@H](CCC(=O)O)[C@H]1CC[C@H]2[C@@H]3[C@@H](O)C[C@@H]4C[C@H](O)CC[C@]4(C)[C@H]3C[C@H](O)[C@]12C` [ursocholic acid], the GSM activity (Aβ42) is given as “GSMs”.
